Here are results for 5 molecules from US20250019385A1, “SPIROCYCLIC ANNULATED 2-AMINO-3-CYANO THIOPHENES AND DERIVATIVES FOR THE TREATMENT OF CANCER” (Boehringer Ingelheim International GmbH, priority 2023, published 2025).

≈ marks a conversion by molar mass, not a printed value.

What is called IC50 is the midpoint of a concentration-inhibition curve. As a reminder, the solubility is how much of the substance goes into solution per volume.

Chain of KRAS (G12D)::SOS1 protein-protein interaction (P01116 other isoform, or with tags, fused parts or gaps G12D): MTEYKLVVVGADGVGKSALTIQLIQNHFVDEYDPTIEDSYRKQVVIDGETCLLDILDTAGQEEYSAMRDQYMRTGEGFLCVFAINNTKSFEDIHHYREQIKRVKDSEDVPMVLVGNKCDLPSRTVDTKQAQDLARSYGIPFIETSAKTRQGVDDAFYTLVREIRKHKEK

For the first data set, the system named is LOVO cells. Description: LOVO CTG proliferation assay (120 h) (CRC, G13D). It is filed as cell-based. To be noted: Homo sapiens. The procedure, abridged: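 Cells seeded at 1000/well in DMEM + 10% FCS, dosed next day with a logarithmic compound series, technical duplicates, for 120 h. Viability by CellTiter-Glo luminescence as percent of DMSO control; IC50 from four-parameter non-linear regression.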
`C[C@H](Oc1nc(-c2onc3c2CCC[C@@]32CCCc3sc(N)c(C#N)c32)nc2c1n(C)c(=O)n2[C@H]1CCC[C@@H]1O)[C@@H]1CCCN1C` [I-19] gave an IC50 of 60 nM.

`CO[C@H]1CCN(C)[C@@H]1[C@H](C)Oc1nc(-c2noc3c2CCC[C@@]32CCCc3sc(N)c(C#N)c32)nc2c1n(C)c(=O)n2[C@@H]1CCOC1` [II-1] displayed an IC50 of 2 nM.

As to `C[C@H](Oc1nc(-c2onc3c2CCC[C@@]32CCCc3sc(N)c(C#N)c32)nc2c1n(C)c(=O)n2[C@H]1CCOC1)[C@@H]1CCCN1C` [I-9], the IC50 was found to be 90 nM.

`C[C@H](Oc1nc(-c2onc3c2CCC[C@@]32CCCc3sc(N)c(C#N)c32)nc2c1[nH]c(=O)n2[C@@H]1CCCOC1)[C@@H]1CCCN1C` [I-13] showed an IC50 of 39 nM. This IC50 is about 2.3-fold lower than that of the molecule before.

With `CO[C@@H]1C[C@@H]([C@H](C)Oc2nc(-c3noc4c3CCC[C@@]43CCCc4sc(N)c(C#N)c43)nc3c2n(C)c(=O)n3[C@@]23COC[C@@H]2C3)N(C)C1` [II-6], the IC50 is 11 nM.

A further data set has as its target KRAS (G12D)::SOS1 protein-protein interaction (Homo sapiens (Human), UniProt P01116, G12D). Nature of the data set: KRAS::SOS1 AlphaScreen binding assay (KRAS G12D). Conditions: GDP. The procedure, abridged:
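AlphaScreen assay with KRAS G12D (1-169, 6His/avi-tagged, 10 nM), GST-SOS1 564-1049 (5 nM) and GDP (10 μM) in PBS, 0.1% BSA, 0.05% Tween 20; compound up to 100 μM top concentration, eleven fivefold dilutions in duplicate. After 30 min, glutathione acceptor and streptavidin donor beads (10 μg/mL each) were added and signal read after a further 60 min at room temperature in the dark; IC50 from 4-parameter logistic fit.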
(In general: Bead proximity is the source of the signal in Alpha formats.)
`C[C@H](Oc1nc(-c2onc3c2CCC[C@@]32CCCc3sc(N)c(C#N)c32)nc2c1n(C)c(=O)n2[C@H]1CCC[C@@H]1O)[C@@H]1CCCN1C` [I-19]: the IC50 turned out to be 3 nM.

`CO[C@H]1CCN(C)[C@@H]1[C@H](C)Oc1nc(-c2noc3c2CCC[C@@]32CCCc3sc(N)c(C#N)c32)nc2c1n(C)c(=O)n2[C@@H]1CCOC1` [II-1]: the concentration for half-maximal inhibition (IC50) came out at 1 nM.

The molecule `C[C@H](Oc1nc(-c2onc3c2CCC[C@@]32CCCc3sc(N)c(C#N)c32)nc2c1n(C)c(=O)n2[C@H]1CCOC1)[C@@H]1CCCN1C` [I-9] registered an IC50 of 2 nM.

`C[C@H](Oc1nc(-c2onc3c2CCC[C@@]32CCCc3sc(N)c(C#N)c32)nc2c1[nH]c(=O)n2[C@@H]1CCCOC1)[C@@H]1CCCN1C` [I-13]: the IC50 was 2 nM.

Molecule `CO[C@@H]1C[C@@H]([C@H](C)Oc2nc(-c3noc4c3CCC[C@@]43CCCc4sc(N)c(C#N)c43)nc3c2n(C)c(=O)n3[C@@]23COC[C@@H]2C3)N(C)C1` [II-6] had an IC50 of 1 nM.

Tested on in a further data set: not listed separately
Nature of the data set: Plasma protein binding assay (PPB), equilibrium dialysis. It is filed as in vitro ADME. Conditions: bovine, 10% FCS in PBS, read-out: PPB 10% FCS (% fu). Summed up:
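Compound at 1-10 μmol/L in 10% FCS in PBS was dialysed against PBS (with or without dextran) across a 5-10 kg/mol cut-off membrane for 3-5 h at 37° C. Both chambers were protein-precipitated and compound was quantified by LC-MS. The unbound fraction was calculated from the serum-side and buffer-side concentrations.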
Background: In equilibrium dialysis only unbound substance equilibrates across the membrane.
As to `C[C@H](Oc1nc(-c2onc3c2CCC[C@@]32CCCc3sc(N)c(C#N)c32)nc2c1n(C)c(=O)n2[C@H]1CCC[C@@H]1O)[C@@H]1CCCN1C` [I-19], the fraction unbound worked out at 0.05.

For `CO[C@H]1CCN(C)[C@@H]1[C@H](C)Oc1nc(-c2noc3c2CCC[C@@]32CCCc3sc(N)c(C#N)c32)nc2c1n(C)c(=O)n2[C@@H]1CCOC1` [II-1], the fraction unbound amounted to 0.09.

On to `C[C@H](Oc1nc(-c2onc3c2CCC[C@@]32CCCc3sc(N)c(C#N)c32)nc2c1n(C)c(=O)n2[C@H]1CCOC1)[C@@H]1CCCN1C` [I-9], for which the fraction unbound came to 0.25.

With `C[C@H](Oc1nc(-c2onc3c2CCC[C@@]32CCCc3sc(N)c(C#N)c32)nc2c1[nH]c(=O)n2[C@@H]1CCCOC1)[C@@H]1CCCN1C` [I-13], the fraction unbound was found to be 0.18.

Regarding `CO[C@@H]1C[C@@H]([C@H](C)Oc2nc(-c3noc4c3CCC[C@@]43CCCc4sc(N)c(C#N)c43)nc3c2n(C)c(=O)n3[C@@]23COC[C@@H]2C3)N(C)C1` [II-6], the fraction unbound was found to be 0.07.

Tested on in the next data set: not listed separately
Description: Solubility measurement (DMSO solution precipitation method). The class given is physicochemical. To be noted: aqueous buffer, kinetic from dmso stock, McIlvaine buffer pH 4.5, 24 h, read-out: solubility pH 4.5. The procedure, abridged:
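A 10 mM DMSO stock was diluted to 250 μM final in McIlvaine buffer at pH 4.5 or 6.8, then shaken 24 h at ambient temperature. After filtering off precipitate, filtrate concentration was quantified by LC-UV against a fully dissolved reference in acetonitrile/water (1:1).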
On to `C[C@H](Oc1nc(-c2onc3c2CCC[C@@]32CCCc3sc(N)c(C#N)c32)nc2c1n(C)c(=O)n2[C@H]1CCC[C@@H]1O)[C@@H]1CCCN1C` [I-19], for which the solubility at 24 h was more than 152 µg/mL.

`CO[C@H]1CCN(C)[C@@H]1[C@H](C)Oc1nc(-c2noc3c2CCC[C@@]32CCCc3sc(N)c(C#N)c32)nc2c1n(C)c(=O)n2[C@@H]1CCOC1` [II-1]: the solubility at 24 h was more than 161 µg/mL.

On to `C[C@H](Oc1nc(-c2onc3c2CCC[C@@]32CCCc3sc(N)c(C#N)c32)nc2c1n(C)c(=O)n2[C@H]1CCOC1)[C@@H]1CCCN1C` [I-9], for which the solubility at 24 h is more than 149 µg/mL.

`C[C@H](Oc1nc(-c2onc3c2CCC[C@@]32CCCc3sc(N)c(C#N)c32)nc2c1[nH]c(=O)n2[C@@H]1CCCOC1)[C@@H]1CCCN1C` [I-13]: the solubility at 24 h is more than 148 µg/mL.

On to `CO[C@@H]1C[C@@H]([C@H](C)Oc2nc(-c3noc4c3CCC[C@@]43CCCc4sc(N)c(C#N)c43)nc3c2n(C)c(=O)n3[C@@]23COC[C@@H]2C3)N(C)C1` [II-6], for which the solubility at 24 h was more than 144 µg/mL.

The data set is the same for the next values; noted with them: aqueous buffer, kinetic from dmso stock, McIlvaine buffer pH 6.8, 24 h, read-out: solubility pH 6.8.
Regarding `C[C@H](Oc1nc(-c2onc3c2CCC[C@@]32CCCc3sc(N)c(C#N)c32)nc2c1n(C)c(=O)n2[C@H]1CCC[C@@H]1O)[C@@H]1CCCN1C` [I-19], the solubility at 24 h was more than 146 µg/mL.

As for `CO[C@H]1CCN(C)[C@@H]1[C@H](C)Oc1nc(-c2noc3c2CCC[C@@]32CCCc3sc(N)c(C#N)c32)nc2c1n(C)c(=O)n2[C@@H]1CCOC1` [II-1], the solubility at 24 h turned out to be 37 µg/mL (≈ 56 µM).

Turning to `C[C@H](Oc1nc(-c2onc3c2CCC[C@@]32CCCc3sc(N)c(C#N)c32)nc2c1n(C)c(=O)n2[C@H]1CCOC1)[C@@H]1CCCN1C` [I-9], the solubility at 24 h was more than 144 µg/mL.

Regarding `C[C@H](Oc1nc(-c2onc3c2CCC[C@@]32CCCc3sc(N)c(C#N)c32)nc2c1[nH]c(=O)n2[C@@H]1CCCOC1)[C@@H]1CCCN1C` [I-13], the solubility at 24 h is more than 131 µg/mL.

As for `CO[C@@H]1C[C@@H]([C@H](C)Oc2nc(-c3noc4c3CCC[C@@]43CCCc4sc(N)c(C#N)c43)nc3c2n(C)c(=O)n3[C@@]23COC[C@@H]2C3)N(C)C1` [II-6], the solubility at 24 h worked out at 62 µg/mL (≈ 92.2 µM).

A further data set relates to NCI-H358 cells. Nature of the data set: NCI-H358 CTG proliferation assay (120 h) (NSCLC, G12C). It is filed as cell-based. To be noted: Homo sapiens. Summed up:
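Cells seeded at 200 per well in RPMI-1640 with 10% FCS, left overnight, then treated with a logarithmic dose series in duplicate for 120 h. Viability measured by CellTiter-Glo luminescence as percent of DMSO controls; IC50 from four-parameter non-linear regression.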
The molecule `C[C@H](Oc1nc(-c2onc3c2CCC[C@@]32CCCc3sc(N)c(C#N)c32)nc2c1n(C)c(=O)n2[C@H]1CCC[C@@H]1O)[C@@H]1CCCN1C` [I-19] gave an IC50 of 201 nM.

As for `CO[C@H]1CCN(C)[C@@H]1[C@H](C)Oc1nc(-c2noc3c2CCC[C@@]32CCCc3sc(N)c(C#N)c32)nc2c1n(C)c(=O)n2[C@@H]1CCOC1` [II-1], the 50% inhibitory concentration (IC50) is 4 nM.

`C[C@H](Oc1nc(-c2onc3c2CCC[C@@]32CCCc3sc(N)c(C#N)c32)nc2c1n(C)c(=O)n2[C@H]1CCOC1)[C@@H]1CCCN1C` [I-9] registered a 50% inhibitory concentration (IC50) of 52 nM.

In turn, `C[C@H](Oc1nc(-c2onc3c2CCC[C@@]32CCCc3sc(N)c(C#N)c32)nc2c1[nH]c(=O)n2[C@@H]1CCCOC1)[C@@H]1CCCN1C` [I-13] registered an IC50 of 9 nM.

In turn, `CO[C@@H]1C[C@@H]([C@H](C)Oc2nc(-c3noc4c3CCC[C@@]43CCCc4sc(N)c(C#N)c43)nc3c2n(C)c(=O)n3[C@@]23COC[C@@H]2C3)N(C)C1` [II-6] came in with an IC50 of 3 nM.
